Calls of active or inactive are those of the source. The rule behind the calls is not given here.
Tested on: CCRIS mutagenicity, Ames/micronucleus/aberration tests
Test: CCRIS mutagenicity studies
[1] = Test System: AMES SALMONELLA TYPHIMURIUM, Strain/Indicator: TA100, Metabolic Activation: NONE, Method: PREINCUBATION
[2] = Test System: AMES SALMONELLA TYPHIMURIUM, Strain/Indicator: TA102, Metabolic Activation: NONE, Method: STANDARD PLATE
[3] = Test System: AMES SALMONELLA TYPHIMURIUM, Strain/Indicator: TA97, Metabolic Activation: NONE, Method: STANDARD PLATE
[4] = Test System: AMES SALMONELLA TYPHIMURIUM, Strain/Indicator: TA97, Metabolic Activation: RAT, LIVER, S-9, AROCLOR 1254, Method: STANDARD PLATE
[5] = Test System: AMES SALMONELLA TYPHIMURIUM, Strain/Indicator: TA98, Metabolic Activation: NONE, Method: STANDARD PLATE
[6] = Test System: AMES SALMONELLA TYPHIMURIUM, Strain/Indicator: TA98, Metabolic Activation: RAT, LIVER, S-9, AROCLOR 1254, Method: STANDARD PLATE
[7] = Test System: AMES SALMONELLA TYPHIMURIUM, Strain/Indicator: TA100, Metabolic Activation: NONE, Method: STANDARD PLATE
[8] = Test System: AMES SALMONELLA TYPHIMURIUM, Strain/Indicator: TA100, Metabolic Activation: RAT, LIVER, S-9, AROCLOR 1254, Method: STANDARD PLATE

C=C(C)C=O was tested, and the mutagenic call (Test System: AMES SALMONELLA TYPHIMURIUM, Strain/Indicator: TA100, Metabolic Activation: NONE, Method: MODIFIED LIQUID SUSPENSION) was “active; positive”, the mutagenic call [1] was “active; positive” and the mutagenic call (Test System: AMES SALMONELLA TYPHIMURIUM, Strain/Indicator: TA100, Metabolic Activation: RAT LIVER S-9, AROCLOR 1254, Method: PREINCUBATION) was “active; positive”. For the same compound, the mutagenic call (Test System: AMES SALMONELLA TYPHIMURIUM, Strain/Indicator: TA100, Metabolic Activation: RAT, LIVER, S-9, AROCLOR 1254, Method: MODIFIED LIQUID SUSPENSION) was “active; positive”, the mutagenic call (Test System: AMES SALMONELLA TYPHIMURIUM, Strain/Indicator: TA100, Metabolic Activation: RAT, LIVER, S-9, AROCLOR 1254, Method: PREINCUBATION) was “active; positive” and the mutagenic call (Test System: AMES SALMONELLA TYPHIMURIUM, Strain/Indicator: TA104, Metabolic Activation: NONE, Method: PREINCUBATION) was “active; positive”. The mutagenic call (Test System: CHINESE HAMSTER V-79, Strain/Indicator: V-79 (HPRT)/6-THIOGUANINE, Metabolic Activation: NONE) was “active; positive” and the mutagenic call (Test System: CHINESE HAMSTER V-79, Strain/Indicator: V-79 (HPRT)/6-THIOGUANINE, Metabolic Activation: RAT LIVER S-9, AROCLOR 1254) was “inactive; negative”.
N#[N+]c1ccc(CO)cc1 was tested, and the mutagenic call [2] was “active; positive” and the mutagenic call (Test System: CHINESE HAMSTER V-79, Strain/Indicator: V-79/6-THIOGUANINE, Metabolic Activation: NONE) was “active; positive”.
ClCc1ccncc1 was tested, and the mutagenic call [3] was “inactive; negative”, the mutagenic call [4] was “inactive; negative” and the mutagenic call [5] was “inactive; negative”. For the same compound, the mutagenic call [6] was “inactive; negative”, the mutagenic call [7] was “inactive; negative” and the mutagenic call [2] was “inactive; negative”. For the same compound, the mutagenic call (Test System: AMES SALMONELLA TYPHIMURIUM, Strain/Indicator: TA102, Metabolic Activation: RAT, LIVER, S-9, AROCLOR 1254, Method: STANDARD PLATE) was “inactive; negative”.
In the case of C=C1CC[C@H]2C[C@@H]1C2(C)C, the mutagenic call (Test System: AMES SALMONELLA TYPHIMURIUM, Strain/Indicator: TA98, Metabolic Activation: HAMSTER, LIVER, S-9, AROCLOR 1254 (2.5-20%), Method: PREINCUBATION) is reported as “inactive; negative”, the mutagenic call (Test System: AMES SALMONELLA TYPHIMURIUM, Strain/Indicator: TA98, Metabolic Activation: HAMSTER, LIVER, S-9, AROCLOR 1254, Method: STANDARD PLATE) is reported as “inactive; negative” and the mutagenic call [5] is reported as “inactive; negative”. For the same compound, the mutagenic call [6] was “inactive; negative”, the mutagenic call (Test System: AMES SALMONELLA TYPHIMURIUM, Strain/Indicator: TA100, Metabolic Activation: HAMSTER, LIVER, S-9, AROCLOR 1254 (2.5-20%), Method: PREINCUBATION) was “inactive; negative” and the mutagenic call (Test System: AMES SALMONELLA TYPHIMURIUM, Strain/Indicator: TA100, Metabolic Activation: HAMSTER, LIVER, S-9, AROCLOR 1254, Method: STANDARD PLATE) was “inactive; negative”. For the same compound, the mutagenic call [7] was “inactive; negative”, the mutagenic call [8] was “inactive; negative” and the mutagenic call (Test System: AMES SALMONELLA TYPHIMURIUM, Strain/Indicator: TA102, Metabolic Activation: HAMSTER, LIVER, S-9, AROCLOR 1254, Method: PREINCUBATION) was “inactive; negative”. For the same compound, the mutagenic call (Test System: AMES SALMONELLA TYPHIMURIUM, Strain/Indicator: TA102, Metabolic Activation: NONE, Method: PREINCUBATION) was “inactive; negative”, the mutagenic call (Test System: AMES SALMONELLA TYPHIMURIUM, Strain/Indicator: TA102, Metabolic Activation: RAT, LIVER, S-9, AROCLOR 1254, Method: PREINCUBATION) was “inactive; negative” and the mutagenic call (Test System: AMES SALMONELLA TYPHIMURIUM, Strain/Indicator: TA1535, Metabolic Activation: HAMSTER, LIVER, S-9, AROCLOR 1254, Method: STANDARD PLATE) was “inactive; negative”. For the same compound, the mutagenic call (Test System: AMES SALMONELLA TYPHIMURIUM, Strain/Indicator: TA1535, Metabolic Activation: NONE, Method: STANDARD PLATE) was “inactive; negative”, the mutagenic call (Test System: AMES SALMONELLA TYPHIMURIUM, Strain/Indicator: TA1535, Metabolic Activation: RAT, LIVER, S-9, AROCLOR 1254, Method: STANDARD PLATE) was “inactive; negative” and the mutagenic call (Test System: AMES SALMONELLA TYPHIMURIUM, Strain/Indicator: TA1537, Metabolic Activation: HAMSTER, LIVER, S-9, AROCLOR 1254, Method: STANDARD PLATE) was “inactive; negative”. For the same compound, the mutagenic call (Test System: AMES SALMONELLA TYPHIMURIUM, Strain/Indicator: TA1537, Metabolic Activation: NONE, Method: STANDARD PLATE) was “inactive; negative”, the mutagenic call (Test System: AMES SALMONELLA TYPHIMURIUM, Strain/Indicator: TA1537, Metabolic Activation: RAT, LIVER, S-9, AROCLOR 1254, Method: STANDARD PLATE) was “inactive; negative” and the mutagenic call (Test System: AMES SALMONELLA TYPHIMURIUM, Strain/Indicator: TA1538, Metabolic Activation: HAMSTER, LIVER, S-9, AROCLOR 1254, Method: STANDARD PLATE) was “inactive; negative”. For the same compound, the mutagenic call (Test System: AMES SALMONELLA TYPHIMURIUM, Strain/Indicator: TA1538, Metabolic Activation: NONE, Method: STANDARD PLATE) was “inactive; negative”, the mutagenic call (Test System: AMES SALMONELLA TYPHIMURIUM, Strain/Indicator: TA1538, Metabolic Activation: RAT, LIVER, S-9, AROCLOR 1254, Method: STANDARD PLATE) was “inactive; negative” and the mutagenic call (Test System: Mouse lymphoma, Strain/Indicator: L5178Y (tk+/tk-), Metabolic Activation: None, Method: Suspension/plate) was “inactive; negative”. For the same compound, the mutagenic call (Test System: Mouse lymphoma, Strain/Indicator: L5178Y (tk+/tk-), Metabolic Activation: Rat, Liver, S-9, Aroclor 1254, Method: Suspension/plate) was “inactive; inconcludive (previous evaluation negative)”.
For Clc1nncc2ncccc12, the mutagenic call (Test System: AMES SALMONELLA TYPHIMURIUM, Strain/Indicator: TA98, Metabolic Activation: NONE, Method: PREINCUBATION) was “inactive; negative”, the mutagenic call (Test System: AMES SALMONELLA TYPHIMURIUM, Strain/Indicator: TA98, Metabolic Activation: RAT, LIVER, S-9, PCB, Method: PREINCUBATION) was “inactive; negative” and the mutagenic call [1] was “inactive; negative”. The mutagenic call (Test System: AMES SALMONELLA TYPHIMURIUM, Strain/Indicator: TA100, Metabolic Activation: RAT, LIVER, S-9, PCB, Method: PREINCUBATION) was “inactive; negative”.
For Clc1ccc(N=Nc2ccc(Cl)c(Cl)c2)cc1Cl, the mutagenic call [3] was “inactive; negative”, the mutagenic call [4] was “inactive; negative” and the mutagenic call [5] was “inactive; negative”. The mutagenic call [6] was “inactive; negative”, the mutagenic call [7] was “inactive; negative” and the mutagenic call [8] was “inactive; negative”. The mutagenic call (Test System: AMES SALMONELLA TYPHIMURIUM, Strain/Indicator: TA104, Metabolic Activation: NONE, Method: STANDARD PLATE) was “inactive; negative”, the mutagenic call (Test System: AMES SALMONELLA TYPHIMURIUM, Strain/Indicator: TA104, Metabolic Activation: RAT, LIVER, S-9, AROCLOR 1254, Method: STANDARD PLATE) was “inactive; negative” and the mutagenic call (Test System: CHINESE HAMSTER OVARY, Strain/Indicator: CHO-K1-BH4 (HGPRT), Metabolic Activation: NONE) was “inactive; negative”. For the same compound, the mutagenic call (Test System: CHINESE HAMSTER OVARY, Strain/Indicator: CHO-K1-BH4 (HGPRT), Metabolic Activation: RAT, LIVER, S-9, AROCLOR 1254) was “inactive; negative” and the mutagenic call (Test System: UDS RODENT HEPATOCYTES, Strain/Indicator: THY INCORP (NON-S-PHASE), Method: LIQUID SCINTILLATION COUNTING) was “active; positive”.

Source: PubChem BioAssay AID1259407 (Chemical Carcinogenesis Research Information System (CCRIS), 2018)
